Measurements published in patent US20240398947A1, “CAR T-CELL ADJUVANT THERAPIES” (CytoAgents, Inc., priority 2020, published 2024).

Assays:
normal human PBMC [1] = assay: Cytokine release assay in stimulated normal human PBMC (Luminex multiplex); type: cell-based; details: for significant reduction of IL-1α / significant reduction of IL-1β: 5 donors
normal human PBMC [2] = assay: AlamarBlue cell viability of treated PBMC; type: cell-based; details: PBMC of Donors 1-5, 48 hours post stimulation, GP1681 750 μM
Method: Following pre-treatment, cells were stimulated with either LPS or Poly (I:C). Twenty-four to forty-eight hours post-stimulation supernatants were collected and tested both for viability (48 hours) as well as concentrations of 29 different cytokines (24 hours.). Viability assessments confirmed the lack of GP1681-associated cell cytotoxicity. Statistical comparisons in individual donor results were conducted between all test groups within each donor group (between individual stimulant-treatment pairs) to determine efficacy of stimulation as well as any potential GP1681 effects on cytokine production. Additionally, statistical analysis was performed on pooled donor data for each cytokine stimulant-treatment pair to comprehensively determine cytokine suppression effects of GP1681 for each cytokine.
After resting the cells, 100 μl of GP1681 was added to appropriate wells at a final dosing concentration of 750 μM. […] For cell stimulation, 20 μL of the 1.0 ng/ml LPS solution or the 250 μg/ml Poly (I:C) solution were added to appropriate wells according to the group designation. Twenty-four hours later 100 uL of supernatant were collected from all wells and stored for cytokine analysis. Approximately four hours before final harvest, AlamarBlue dye was added to all wells. At forty-eight hours post stimulation all samples were collected, and supernatants tested for cell viability. […]

influenza (H1N1) = type: in vivo, mice
influenza (H5N1) = details: in vivo influenza (H5N1), Gemmus Pharma studies; cited from earlier work
CRS = assay: Mouse model of CAR T-cell therapy induced CRS (Raji-luc tumor); details: IP, BID for 7 days
[3] = LPS-stimulated PBMC, 24 h supernatant, DEX 1 μM, GP1681 750 μM
[4] = Poly(I:C)-stimulated PBMC, 24 h supernatant, DEX 1 μM, GP1681 750 μM
[5] = in vivo influenza (H1N1), current CytoAgents studies

CC#CC[C@H](C)[C@H](O)/C=C/[C@@H]1[C@H]2c3cccc(CCCC(=O)[O-])c3O[C@H]2C[C@H]1O.[Na+] [GP1681, esuberaprost sodium salt]
number of cytokines reduced of the 29 cytokines analyzed (normal human PBMC [1]; LPS or Poly(I:C) stimulated PBMC, pooled and individual donor results): 21 | significant reduction of IL-1α (normal human PBMC [1]; [3]): YES | significant reduction of IL-1β (normal human PBMC [1]; [3]): YES | significant reduction of CCL2 (MCP-1) (normal human PBMC [1]; [3]): YES | significant reduction of CCL3 (MIP1 α) (normal human PBMC [1]; [3]): YES | significant reduction of CCL5 (RANTES) (normal human PBMC [1]; [3]): YES | significant reduction of CXCL9 (MIG) (normal human PBMC [1]; [3]): YES | significant reduction of CXCL10 (IP-10) (normal human PBMC [1]; [3]): YES | significant reduction of FGF (normal human PBMC [1]; [3]): YES | significant reduction of GM-CSF (normal human PBMC [1]; [3]): YES | significant reduction of IFN-α2 (normal human PBMC [1]; [3]): YES | significant reduction of IFN-γ (normal human PBMC [1]; [3]): YES | significant reduction of IL-4 (normal human PBMC [1]; [3]): YES | significant reduction of IL-5 (normal human PBMC [1]; [3]): YES | significant reduction of IL-9 (normal human PBMC [1]; [3]): YES | significant reduction of IL-12 (normal human PBMC [1]; [3]): YES | significant reduction of IL-13 (normal human PBMC [1]; [3]): YES | significant reduction of IL-15 (normal human PBMC [1]; [3]): YES | significant reduction of IL-17 (normal human PBMC [1]; [3]): YES | significant reduction of IL-18 (normal human PBMC [1]; [3]): YES | significant reduction of PDGF (normal human PBMC [1]; [3]): YES | significant reduction of TNF α (normal human PBMC [1]; [3]): YES | significant reduction of IL-1α (normal human PBMC [1]; [4]): YES | significant reduction of IL-1β (normal human PBMC [1]; [4]): YES | significant reduction of CCL2 (MCP-1) (normal human PBMC [1]; [4]): YES | significant reduction of CCL5 (RANTES) (normal human PBMC [1]; [4]): YES | significant reduction of CXCL9 (MIG) (normal human PBMC [1]; [4]): YES | significant reduction of CXCL10 (IP-10) (normal human PBMC [1]; [4]): YES | significant reduction of IFN-α2 (normal human PBMC [1]; [4]): YES | significant reduction of IFN-γ (normal human PBMC [1]; [4]): YES | significant reduction of IL-4 (normal human PBMC [1]; [4]): YES | significant reduction of IL-5 (normal human PBMC [1]; [4]): YES | significant reduction of IL-12 (normal human PBMC [1]; [4]): YES | significant reduction of IL-13 (normal human PBMC [1]; [4]): YES | significant reduction of IL-15 (normal human PBMC [1]; [4]): YES | significant reduction of IL-18 (normal human PBMC [1]; [4]): YES | significant reduction of PDGF (normal human PBMC [1]; [4]): YES | significant reduction of TNF α (normal human PBMC [1]; [4]): YES | number of different cytokines whose production is down regulated (normal human PBMC [1]; data from Gemmus Pharma, Inc studies and the present work together): approximately 25 | nominal reduction in the ex vivo production of IFNα (normal human PBMC [1]; stimulated PBMC, statistically significant): less than 2 fold | cytotoxicity (Alamar blue viability assessment) (normal human PBMC [2]): no cytotoxicity | IL-2 reduced by treatment (influenza (H1N1); [5]): reduced | IL-6 reduced by treatment (influenza (H1N1); [5]): reduced | IL-10 reduced by treatment (influenza (H1N1); [5]): reduced | IL-8 production suppressed by treatment (influenza (H1N1); mouse, in vivo): significantly suppressed | repression of IFNα concentrations (influenza (H1N1); mouse, in vivo): no significant repression | IL-2 reduced by treatment (influenza (H5N1)): reduced | IL-6 reduced by treatment (influenza (H5N1)): reduced | IL-8 reduced by treatment (influenza (H5N1)): reduced | IL-10 reduced by treatment (influenza (H5N1)): reduced | cytokine production, comparison with dexamethasone (CRS): superior to dexamethasone | survival benefits over dexamethasone (CRS): greater survival benefits
